Data as given in patent publication EP4818176A1, “TETRACYCLIC DERIVATIVE INHIBITOR, AND PREPARATION METHOD AND USE THEREFOR” (Shanghai Hansoh Biomedical Co., Ltd., priority 2023, dated 2025).
Like-named read-outs stand apart in the source and are kept apart here.

What was measured:
hERG potassium channel = hERG potassium channel (Homo sapiens, UniProt Q12809); test: hERG potassium channel inhibitory activity assay (CHO-hERG cells, tail current); assay type: cell-based; conditions: inhibition of tail current, read-out: inhibitory activity (IC50) against the cardiac hERG potassium channel
Chain of hERG potassium channel (Q12809 whole entry): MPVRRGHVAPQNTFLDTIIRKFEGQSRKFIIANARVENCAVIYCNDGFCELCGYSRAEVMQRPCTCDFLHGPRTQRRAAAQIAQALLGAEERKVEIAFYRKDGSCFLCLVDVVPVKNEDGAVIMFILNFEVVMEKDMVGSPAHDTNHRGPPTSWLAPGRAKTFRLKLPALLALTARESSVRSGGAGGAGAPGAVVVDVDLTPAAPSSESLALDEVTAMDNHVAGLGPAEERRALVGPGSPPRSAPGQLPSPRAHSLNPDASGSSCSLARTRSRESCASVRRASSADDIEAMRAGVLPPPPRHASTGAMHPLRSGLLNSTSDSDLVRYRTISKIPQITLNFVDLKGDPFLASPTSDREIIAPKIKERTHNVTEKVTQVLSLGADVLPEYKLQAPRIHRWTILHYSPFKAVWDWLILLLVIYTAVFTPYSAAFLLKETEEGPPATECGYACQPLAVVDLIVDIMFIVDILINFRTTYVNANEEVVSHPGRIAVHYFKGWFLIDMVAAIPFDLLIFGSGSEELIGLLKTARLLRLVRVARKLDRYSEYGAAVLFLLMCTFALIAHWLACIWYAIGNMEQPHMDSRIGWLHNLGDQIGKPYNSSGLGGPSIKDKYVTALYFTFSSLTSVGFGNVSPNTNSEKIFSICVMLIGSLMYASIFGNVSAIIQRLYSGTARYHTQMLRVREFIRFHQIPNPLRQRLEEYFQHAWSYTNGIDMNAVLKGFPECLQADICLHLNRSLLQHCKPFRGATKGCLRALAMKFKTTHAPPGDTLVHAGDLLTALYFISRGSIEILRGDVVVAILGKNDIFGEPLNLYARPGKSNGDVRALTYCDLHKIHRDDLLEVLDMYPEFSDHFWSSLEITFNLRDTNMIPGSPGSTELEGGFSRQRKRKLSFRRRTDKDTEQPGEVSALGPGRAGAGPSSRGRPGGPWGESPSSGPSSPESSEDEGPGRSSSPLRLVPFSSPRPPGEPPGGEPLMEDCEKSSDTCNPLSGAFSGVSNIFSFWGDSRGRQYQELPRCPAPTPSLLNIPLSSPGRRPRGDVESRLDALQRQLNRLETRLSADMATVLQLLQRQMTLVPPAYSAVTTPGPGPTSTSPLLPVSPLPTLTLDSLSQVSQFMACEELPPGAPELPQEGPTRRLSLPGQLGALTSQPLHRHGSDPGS
From the text: Test Example 5: hERG potassium channel inhibitory activity assay
1 Study objective: The objective of this test example is to determine the inhibitory effect of the compound on the hERG potassium channel activity. 2 Experimental instruments and reagents: 2.1 Reagents
3. Experimental method • 3.1 Cell culture: The CHO cells stably expressing the hERG potassium channel (CHO-hERG) used in the experiment were obtained from Sophion Bioscience (Ballerup, Denmark), and passaged and cryopreserved at WuXi AppTec Co., Ltd. in Shanghai. The CHO-hERG cells were cultured and passaged in Ham's F-12 medium containing 1 × GlutaMAX, 10% foetal bovine serum, 100 µg/mL G418 and 100 µg/mL hygromycin B at 37°C with 5% CO2. • 3.2 Preparation of intracellular and extracellular solutions: The extracellular solution was prepared once a month, and aliquoted and stored in 1 L storage bottles. The intracellular solution was prepared once every three months, and aliquoted and cryopreserved at -20°C. The intracellular solution was thawed in a 37°C water bath before the experiment and then placed in an ice bath for later use. • 3.3 Preparation of compounds: The positive control drug amitriptyline hydrochloride and the compounds were dissolved in 100% DMSO (Sigma-Aldrich, D2650) to prepare 10 mM or 30 mM stock solutions. Before the experiment, the stock solutions of the test compounds were diluted with DMSO to prepare solutions 1000-fold or 333-fold higher than the desired test concentrations, and then further diluted 1000-fold or 333-fold with the extracellular solution to achieve the desired concentrations. • 3.4 Cell preparation: The CHO-hERG cells used in the experiment were cultured for at least two days. When the cell density reached more than 75%, the cells were digested with TrypLE, then resuspended in the extracellular solution, and centrifuged. The supernatant was discarded, and then the cells were further resuspended in 2 mL of extracellular solution for later use. • 3.4 Experimental data processing: In data processing, the peak tail current was baseline-corrected when evaluating the hERG blocking effect. The effect of each compound at various concentrations was expressed as the inhibition rate of the tail current. IC50 values were obtained by fitting the data to the Hill equation: I/Icontrol =Bottom + (Top-Bottom)/(1+10^((LogIC50-X) * HillSlope)) • Top: maximum effect; Bottom: minimum effect; Hillslope: slope; X: concentration of the test compound. • IC50: half-maximal inhibitory concentration of the test compound on hERG.

HCT116 wild-type cells = test: Cell proliferation inhibition (CellTiter-Glo), HCT116 wild-type cells; assay type: cell-based; conditions: Homo sapiens
Method in brief: (§1)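 Cells were grown in McCoy's 5A with 10% FBS, adhered overnight, then exposed to serial compound dilutions for 72-240 h at 37°C, 5% CO2, with a vehicle control. Viability was read as CellTiter-Glo luminescence, and IC50 came from nonlinear regression of inhibition rate against concentration.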

[1] = test system: MTAP Knockout HCT116 cells; test: Cell proliferation inhibition (CellTiter-Glo), HCT116 MTAP knockout cells; assay type: cell-based; conditions: for Selectivity: HCT116 IC50 versus MTAP Knockout HCT116 IC50; for IC50: Homo sapiens
Method in brief: as §1

[2] = target: T1, PRMT5/MEP50-MTA protein complex (Homo sapiens, UniProt O14744); test: Thermal shift assay: thermal stability (melting temperature) of PRMT5/MEP50-MTA protein complex; assay type: binding; conditions: final compound concentration 8 µM; 2 µM PRMT5/MEP50, 2 µM MTA; Tm minus Tm of DMSO vehicle control
T1 construct: purchased Viva Biotech
T1 sequence (O14744 whole entry): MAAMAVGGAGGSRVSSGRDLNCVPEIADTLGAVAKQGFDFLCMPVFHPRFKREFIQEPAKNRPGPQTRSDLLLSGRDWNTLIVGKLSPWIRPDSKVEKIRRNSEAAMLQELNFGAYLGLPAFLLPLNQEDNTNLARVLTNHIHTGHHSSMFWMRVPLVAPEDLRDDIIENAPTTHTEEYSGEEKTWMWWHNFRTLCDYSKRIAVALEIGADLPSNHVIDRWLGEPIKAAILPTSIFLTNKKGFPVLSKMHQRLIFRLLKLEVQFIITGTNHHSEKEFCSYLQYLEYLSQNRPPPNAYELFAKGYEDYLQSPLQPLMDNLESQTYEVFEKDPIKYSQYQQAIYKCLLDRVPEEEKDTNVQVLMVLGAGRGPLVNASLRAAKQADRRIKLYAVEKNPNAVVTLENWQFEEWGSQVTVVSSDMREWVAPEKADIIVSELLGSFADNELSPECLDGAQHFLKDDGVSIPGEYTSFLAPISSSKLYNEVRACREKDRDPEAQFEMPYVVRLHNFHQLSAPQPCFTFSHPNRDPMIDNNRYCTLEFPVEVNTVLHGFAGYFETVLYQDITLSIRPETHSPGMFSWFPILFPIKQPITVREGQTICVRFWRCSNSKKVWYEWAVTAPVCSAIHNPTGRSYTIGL
T1 sequence (Q9BQA1 whole entry partner): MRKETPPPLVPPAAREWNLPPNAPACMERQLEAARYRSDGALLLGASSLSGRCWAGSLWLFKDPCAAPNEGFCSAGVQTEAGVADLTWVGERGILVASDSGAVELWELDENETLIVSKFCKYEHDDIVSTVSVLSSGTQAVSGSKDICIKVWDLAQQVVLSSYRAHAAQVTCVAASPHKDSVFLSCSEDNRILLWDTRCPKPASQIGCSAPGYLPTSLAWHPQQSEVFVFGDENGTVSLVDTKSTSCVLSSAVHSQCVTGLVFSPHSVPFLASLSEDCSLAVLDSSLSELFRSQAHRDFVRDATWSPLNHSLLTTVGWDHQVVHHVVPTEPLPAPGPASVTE
Method in brief: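 Human PRMT5/MEP50 (2 µM) was preincubated 30 min with 2 µM MTA in 50 mM HEPES, 10 mM DTT, 250 mM NaCl with SYPRO Orange. Compound at 8 µM final (2.5% DMSO vehicle) was added for 10 minutes, then samples were heated 25°C to 95°C at 0.03°C/s. Tm was derived from the melt curve.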

[3] = Pharmacokinetics in rats (plasma) after oral administration; assay type: in vivo; conditions: rat, po, SD rats, p.o. 5 mg/kg
Experimental: Test Example 4: Determination of the pharmacokinetics of the compounds of the present invention in rats (plasma) after oral administration.
1 Study objective: SD rats were used as test animals to study the pharmacokinetic behaviour of the following example compounds in rats (plasma) after oral administration at a dose of 5 mg/kg. 2 Test scheme • 2.1 Test drugs: Vehicle formula: 0.5% CMC-Na (1% Tween 80); the examples of the present invention, made in house. • 2.2 Test animals: 3 SD rats per group, male, purchased from Shanghai Bikai Keyi Biotechnology Co., Ltd., with animal license number (SCXK (Shanghai) 2018-0006, No.20180006037467). • 2.3 Administration: 3 SD rats per group, male, were fasted overnight and then respectively administered PO at a dose of 5 mg/kg and a volume of 10 mL/kg. • 2.4 Sample collection: 0.2 mL of blood was collected from the jugular vein of rats before administration and at 0, 0.25, 0.5, 1, 2, 4, 6, 8 and 24 h after administration, and placed in EDTA-K2test tubes, and the test tubes were centrifuged at 6,000 rpm at 4°C for 6 min to separate the plasma, which was stored at -80°C. The animals were fed 4 h after administration. • 2.5 Sample treatment • 1) 160 uL of acetonitrile was added to 40 uL of plasma sample for precipitation, and after mixing, the mixture was centrifuged at 3,500 × g for 5-20 minutes. • 2) 100 uL of the treated supernatant solution was taken for LC/MS/MS analysis to determine the concentration of the test compounds. • 2.6 Liquid phase analysis • Liquid phase conditions: Shimadzu LC-20AD pump;mass spectrometry conditions: AB Sciex API 4000 mass spectrometer • Chromatographic column: Phenomenex Gemiu 5 um C18 50 × 4.6 mm • Mobile phase: solution A: 0.1% formic acid in water, solution B: methanol • Flow rate: 1.0 mL/min, elution time: 0-4.0 min, with eluents as follows:
Experimental results and analysis: The main pharmacokinetic parameters were calculated using WinNonlin 8.2.

[4] = HCT-116, read-out: MTAP Knockout HCT116 IC50

Structure (SMILES) | IC50 (hERG potassium channel) [nM] | IC50 (HCT116 wild-type cells; HCT-116, read-out: HCT116 IC50) [nM] | Selectivity [1] | IC50 [1, 4] [nM] | ΔTm at 8 µM [2] [°C] | AUC(0-inf) [3] [ng·h/mL] | half-life [3] [h] | Cmax ([3]; read-out: Cmax) [ng/mL] | MRT inf ([3]; read-out: MRT0-∞) [h] | Tmax ([3]; read-out: tmax) [h] | IC50 (HCT116 wild-type cells; HCT-116, HCT116 wild-type cells, proliferation inhibition, Cell Titer-Glo, read-out: HCT116 IC50) [nM] | IC50 ([1]; HCT-116, MTAP Knockout HCT116 cells, proliferation inhibition, Cell Titer-Glo, read-out: MTAP Knockout HCT116 IC50) [nM]
Nc1nc2cc3c(cc2n2cncc12)C(=O)N(Cc1ccc(-c2c(F)cccc2F)cn1)CCCOC3 [Example 298, 4-Amino-12-((5-(2,6-difluorophenyl)pyridin-2-yl)methyl)-9,10,11,12-tetrahydroimidazo[1,5-a][1,5]oxazolo[8,7-g]quinoxalin-13(7H)-one] | > 30000 | 219 | 81 | 2.7 | 12.5 |  |  |  |  |  |  | 
Nc1nc2cc3c(cc2c2c1COC2)C(=O)N(Cc1ccc(C(F)(F)F)cn1)CCCOC3 [Example 178, 4-Amino-12-((5-(trifluoromethyl)pyridin-2-yl)methyl)-3,7,9,10,11,12-hexahydrofuro[3,4-c][1,5]oxazolino[7,8-g]quinolin-13(1H)-one] | > 30000 | 2380 | 131 | 18 | 11.2 | 2790 | 1.9 | 544 | 3.7 | 1.7 |  | 
Nc1nc2cc3c(cc2n2cncc12)C(=O)N(Cc1ccc(C(F)(F)F)cn1)CCCOC3 [Example 176, 4-Amino-12-((5-(trifluoromethyl)pyridin-2-yl)methyl)-9,10,11,12-tetrahydroimidazo[1,5-a][1,5]oxazonino[8,7-g]quinoxalin-13(7H)-one] | > 30000 |  | 62 |  | 11.5 |  |  |  |  |  | 946 | 15
Nc1nc2cc3c(cc2n2cncc12)C(=O)N(Cc1ccc(C(F)(F)F)cn1)CCCCOC3 [Example 417, 4-Amino-13-((5-(trifluoromethyl)pyridin-2-yl)methyl)-10,11,12,13-tetrahydro-7H-imidazo [1,5-a][1,6] oxazino [3,4-g] quinoxalin-14(9H)-one] | > 30000 | 3800 | 346 | 11 | 11.1 |  |  |  |  |  |  | 
